From US20260015358A1, “BICYCLIC DERIVATIVES, COMPOSITIONS AND USES THEREOF” (Danatlas Pharmaceuticals Co., Ltd., priority 2023, published 2026)

Tests used:
[1] = target: T1, WRN [UniPro: Q14191 (WRN_HUMAN), N500-C946] (Homo sapiens (Human), UniProt Q14191); assay: WRN ATPase assay (ADP-Glo); assay type: biochemical; conditions: WRN enzymatic activity assay
[2] = target: T1, WRN [UniPro: Q14191 (WRN_HUMAN), N500-C946]; assay: WRN unwinding assay (FORKF DNA, fluorescence); assay type: biochemical; conditions: Table 14

T1 sequence (Q14191 500-946): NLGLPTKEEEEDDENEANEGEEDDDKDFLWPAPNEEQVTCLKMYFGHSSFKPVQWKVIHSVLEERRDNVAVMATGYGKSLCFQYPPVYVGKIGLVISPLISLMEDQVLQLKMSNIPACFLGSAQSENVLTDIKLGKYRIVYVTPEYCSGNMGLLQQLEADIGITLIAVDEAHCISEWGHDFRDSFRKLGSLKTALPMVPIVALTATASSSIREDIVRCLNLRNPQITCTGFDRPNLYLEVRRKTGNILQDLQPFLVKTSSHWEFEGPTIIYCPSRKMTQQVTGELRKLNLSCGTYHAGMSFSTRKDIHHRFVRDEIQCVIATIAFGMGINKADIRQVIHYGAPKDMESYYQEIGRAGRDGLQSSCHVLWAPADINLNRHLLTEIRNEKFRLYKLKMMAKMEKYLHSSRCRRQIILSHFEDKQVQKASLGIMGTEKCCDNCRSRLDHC

| IC50 [1] | IC50 [2] | Structure (SMILES) |
| --- | --- | --- |
| < 100 nM | < 100 nM | CCc1c(N2CCN(C(=O)CNC(=O)c3ccco3)CC2)c(=O)n2nc(C3=CCOCC3)nc2n1CC(=O)Nc1ccc(C(F)(F)F)cc1Cl [Example 385, N-(2-(4-(4-(2-((2-Chloro-4-(trifluoromethyl)phenyl)amino)-2-oxoethyl)-2-(3,6-dihydro-2H-pyran-4-yl)-5-ethyl-7-oxo-4,7-dihydro-[1,2,4]triazolo[1,5-a]pyrimidin-6-yl)piperazin-1-yl)-2-oxoethyl)furan-2-carboxamide] |
| < 100 nM | < 100 nM | CCc1c(N2CCN(C(=O)CNC(=O)c3cccs3)CC2)c(=O)n2nc(C3=CCOCC3)nc2n1CC(=O)Nc1ccc(C(F)(F)F)cc1Cl [Example 386, N-(2-(4-(4-(2-((2-Chloro-4-(trifluoromethyl)phenyl)amino)-2-oxoethyl)-2-(3,6-dihydro-2H-pyran-4-yl)-5-ethyl-7-oxo-4,7-dihydro-[1,2,4]triazolo[1,5-a]pyrimidin-6-yl)piperazin-1-yl)-2-oxoethyl)thiophene-2-carboxamide] |
